From US9156796B2, “Benzoimidazole-carboxylic acid amide derivatives as APJ receptor modulators” (SANOFI, priority 2013, dated 2015)

Biological target: T1, human apelin receptor (Homo sapiens, UniProt P35414)
T1 construct: expressed in transfected cells
T1 sequence (P35414 1-380): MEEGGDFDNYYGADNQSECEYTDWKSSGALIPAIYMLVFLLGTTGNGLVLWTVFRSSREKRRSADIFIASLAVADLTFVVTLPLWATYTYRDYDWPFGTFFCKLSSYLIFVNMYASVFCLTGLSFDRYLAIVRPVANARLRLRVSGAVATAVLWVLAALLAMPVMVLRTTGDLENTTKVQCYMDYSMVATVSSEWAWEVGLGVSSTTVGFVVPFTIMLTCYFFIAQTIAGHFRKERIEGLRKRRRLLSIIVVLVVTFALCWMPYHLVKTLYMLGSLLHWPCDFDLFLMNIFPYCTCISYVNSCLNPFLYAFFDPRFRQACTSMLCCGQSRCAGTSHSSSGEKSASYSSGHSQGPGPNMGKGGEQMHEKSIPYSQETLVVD
Test: Determination of agonism on the human apelin receptor by a calcium fluorescence assay (FLIPR)
Format: cell-based
Settings: HEK293 cells stably transfected with human apelin receptor and Giaq protein, Fluo-4 calcium fluorescence, read-out: EC50 (APJ agonism)
Method in brief: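 Agonist EC50s come from peak intracellular calcium transients recorded by FLIPR Tetra, scaled to the 1 μM apelin-13 maximum per plate. Test system: HEK293 stably transfected with human apelin receptor plus Giaq, Fluo-4-loaded (4 μM, 1 h, 37 °C, pH 7.4 buffer with probenecid); ≥7 concentrations, triplicates.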

Row | EC50 [nM] | SMILES
1 | 3260 | CCC(CC)n1c(Cc2cccs2)nc2cc(C(=O)N[C@@H](CC(C)C)C(=O)N3CCN(Cc4ccccc4)CC3)ccc21 [Example 271, 1-(1-Ethyl-propyl)-2-thiophen-2-ylmethyl-1H-benzoimidazole-5-carboxylic acid [(S)-1-(4-benzyl-piperazine-1-carbonyl)-3-methyl-butyl]-amide]
2 | 2770 | CCC(CC)n1c(Cc2cccs2)nc2cc(C(=O)N[C@@H](CC(C)C)C(=O)N3CCN(CC(C)C)CC3)ccc21 [Example 272, 1-(1-Ethyl-propyl)-2-thiophen-2-ylmethyl-1H-benzoimidazole-5-carboxylic acid [(S)-1-(4-isobutyl-piperazine-1-carbonyl)-3-methyl-butyl]-amide]
3 | 12600 | CCC(CC)n1c(Cc2cccs2)nc2cc(C(=O)N[C@@H](CC(C)C)C(=O)N3CCCN(Cc4c(F)cccc4Cl)CC3)ccc21 [Example 274, 1-(1-Ethyl-propyl)-2-thiophen-2-ylmethyl-1H-benzoimidazole-5-carboxylic acid {(S)-1-[4-(2-chloro-6-fluoro-benzyl)-[1,4]diazepane-1-carbonyl]-3-methyl-butyl}-amide]
4 | 242 | CCC(CC)n1c(Cc2cccs2)nc2cc(C(=O)N[C@@H](CC(C)C)C(=O)NCC3CCCN4CCCCC34)ccc21 (stereo partly drawn) [Example 275, 1-(1-Ethyl-propyl)-2-thiophen-2-ylmethyl-1H-benzoimidazole-5-carboxylic acid {(S)-3-methyl-1-[(octahydro-quinolizin-1-ylmethyl)-carbamoyl]-butyl}-amide]
5 | 2100 | CCC(CC)n1c(Cc2cccs2)nc2cc(C(=O)N[C@@H](CC(C)C)C(=O)NCCCN3CCN(Cc4c(F)cccc4Cl)CC3)ccc21 [Example 277, 1-(1-Ethyl-propyl)-2-thiophen-2-ylmethyl-1H-benzoimidazole-5-carboxylic acid ((S)-1-{3-[4-(2-chloro-6-fluoro-benzyl)-piperazin-1-yl]-propylcarbamoyl}-3-methyl-butyl)-amide]
6 | 405 | CCC(CC)n1c(Cc2cccs2)nc2cc(C(=O)N[C@@H](CC(C)C)C(=O)NCCCN3CCN(CC)CC3)ccc21 [Example 278, 1-(1-Ethyl-propyl)-2-thiophen-2-ylmethyl-1H-benzoimidazole-5-carboxylic acid {(S)-1-[3-{4-ethyl-piperazin-1-yl)-propylcarbamoyl]-3-methyl-butyl}-amide]
7 | 2270 | CCC(CC)n1c(Cc2cccs2)nc2cc(C(=O)N[C@@H](CC(C)C)C(=O)NCCCN3CCN(c4ccc(OC)cc4)CC3)ccc21 [Example 279, 1-(1-Ethyl-propyl)-2-thiophen-2-ylmethyl-1H-benzoimidazole-5-carboxylic acid ((S)-1-{3-[4-(4-methoxy-phenyl)-piperazin-1-yl]-propylcarbamoyl}-3-methyl-butyl)-amide]
8 | 219 | CCC(CC)n1c(Cc2cccs2)nc2cc(C(=O)N[C@@H](CC(C)C)C(=O)N3CCC(N4CCN(C)CC4)CC3)ccc21 [Example 280, 1-(1-Ethyl-propyl)-2-thiophen-2-ylmethyl-1H-benzoimidazole-5-carboxylic acid {(S)-3-methyl-1-[4-(4-methyl-piperazin-1-yl)-piperidine-1-carbonyl]-butyl}-amide]
9 | 1210 | CCC(CC)n1c(Cc2cccs2)nc2cc(C(=O)N[C@@H](CC(C)C)C(=O)N3CCC(N4CCCC(C)C4)CC3)ccc21 (stereo partly drawn) [Example 281, 1-(1-Ethyl-propyl)-2-thiophen-2-ylmethyl-1H-benzoimidazole-5-carboxylic acid [(S)-3-methyl-1-(3-methyl-[1,4′]bipiperidinyl-1′-carbonyl)-butyl]-amide]
10 | 430 | CCC(CC)n1c(Cc2cccs2)nc2cc(C(=O)N[C@@H](CC(C)C)C(=O)N3CCC(N4CCC(C)CC4)CC3)ccc21 [Example 282, 1-(1-Ethyl-propyl)-2-thiophen-2-ylmethyl-1H-benzoimidazole-5-carboxylic acid [(S)-3-methyl-1-(4-methyl-[1,4′]bipiperidinyl-1′-carbonyl)-butyl]-amide]
11 | 4500 | CCC(CC)n1c(Cc2cccs2)nc2cc(C(=O)N[C@@H](CC(C)C)C(=O)Nc3ccc(CN4CCC(C)CC4)cc3)ccc21 [Example 283, 1-(1-Ethyl-propyl)-2-thiophen-2-ylmethyl-1H-benzoimidazole-5-carboxylic acid {(S)-3-methyl-1-[4-(4-methyl-piperidin-1-ylmethyl)-phenylcarbamoyl]-butyl}-amide]
12 | 252 | CCCN(CCC)C1CCN(C(=O)[C@H](CC(C)C)NC(=O)c2ccc3c(c2)nc(Cc2cccs2)n3C(CC)CC)CC1 [Example 284, 1-(1-Ethyl-propyl)-2-thiophen-2-ylmethyl-1H-benzoimidazole-5-carboxylic acid [(S)-1-(4-dipropylamino-piperidine-1-carbonyl)-3-methyl-butyl]-amide]
13 | 295 | CCCN1CCC(NC(=O)[C@H](CC(C)C)NC(=O)c2ccc3c(c2)nc(Cc2cccs2)n3C(CC)CC)CC1 [Example 285, 1-(1-Ethyl-propyl)-2-thiophen-2-ylmethyl-1H-benzoimidazole-5-carboxylic acid [(S)-3-methyl-1-(1-propyl-piperidin-4-ylcarbamoyl)-butyl]-amide]
14 | 1100 | CCC(CC)n1c(Cc2cccs2)nc2cc(C(=O)N[C@@H](CC(C)C)C(=O)NCC3CCCN(Cc4ccccc4)C3)ccc21 (stereo partly drawn) [Example 286, 1-(1-Ethyl-propyl)-2-thiophen-2-ylmethyl-1H-benzoimidazole-5-carboxylic acid {(S)-1-[(1-benzyl-piperidin-3-ylmethyl)-carbamoyl]-3-methyl-butyl}-amide]
15 | 408 | CCC(CC)n1c(Cc2cccs2)nc2cc(C(=O)N[C@@H](CC(C)C)C(=O)NCC(C)(C)CN3CCCCCC3)ccc21 [Example 287, 1-(1-Ethyl-propyl)-2-thiophen-2-ylmethyl-1H-benzoimidazole-5-carboxylic acid [(S)-1-(3-azepan-1-yl-2,2-dimethyl-propylcarbamoyl)-3-methyl-butyl]-amide]
16 | 512 | CCC(CC)n1c(Cc2cccs2)nc2cc(C(=O)N[C@@H](CC(C)C)C(=O)NC3CCN(Cc4c(OC)cccc4OC)CC3)ccc21 [Example 288, 1-(1-Ethyl-propyl)-2-thiophen-2-ylmethyl-1H-benzoimidazole-5-carboxylic acid {(S)-1-[1-(2,6-dimethoxy-benzyl)-piperidin-4-ylcarbamoyl]-3-methyl-butyl}-amide]
17 | 341 | CCC(CC)n1c(Cc2cccs2)nc2cc(C(=O)N[C@@H](CC(C)C)C(=O)NCCC3CCCCN3C)ccc21 (stereo partly drawn) [Example 289, 1-(1-Ethyl-propyl)-2-thiophen-2-ylmethyl-1H-benzoimidazole-5-carboxylic acid {(S)-3-methyl-1-[2-(1-methyl-piperidin-2-yl)-ethylcarbamoyl]-butyl}-amide]
18 | 506 | CCC(CC)n1c(Cc2cccs2)nc2cc(C(=O)N[C@@H](CC(C)C)C(=O)NCC3CCN(Cc4ccccc4)C3)ccc21 (stereo partly drawn) [Example 290, 1-(1-Ethyl-propyl)-2-thiophen-2-ylmethyl-1H-benzoimidazole-5-carboxylic acid {(S)-1-[(1-benzyl-pyrrolidin-3-ylmethyl)-carbamoyl]-3-methyl-butyl}-amide]
19 | 408 | CCC(CC)n1c(Cc2cccs2)nc2cc(C(=O)N[C@@H](CC(C)C)C(=O)NCC3CCN(CCc4ccccc4)C3)ccc21 (stereo partly drawn) [Example 291, 1-(1-Ethyl-propyl)-2-thiophen-2-ylmethyl-1H-benzoimidazole-5-carboxylic acid {(S)-3-methyl-1-[(1-phenethyl-pyrrolidin-3-ylmethyl)-carbamoyl]-butyl}-amide]
20 | 2640 | CCC(CC)n1c(Cc2cccs2)nc2cc(C(=O)N[C@@H](CC(C)C)C(=O)NC3CCN(c4ccccn4)CC3)ccc21 [Example 293, 1-(1-Ethyl-propyl)-2-thiophen-2-ylmethyl-1H-benzoimidazole-5-carboxylic acid [(S)-3-methyl-1-(3,4,5,6-tetrahydro-2H-[1,2′]bipyridinyl-4-ylcarbamoyl)-butyl]-amide]

Row | SMILES | EC50 [nM]
21 | CCC(CC)n1c(Cc2cccs2)nc2cc(C(=O)N[C@@H](CC(C)C)C(=O)NC3C[C@H]4CC[C@@H](C3)N4C)ccc21 (stereo partly drawn) [Example 273, 1-(1-Ethyl-propyl)-2-thiophen-2-ylmethyl-1H-benzoimidazole-5-carboxylic acid [(S)-3-methyl-1-((1R,5S)-8-methyl-8-aza-bicyclo[3.2.1]oct-3-ylcarbamoyl)-butyl]-amide] | 212
22 | CCC(CC)n1c(Cc2cccs2)nc2cc(C(=O)N[C@@H](CC(C)C)C(=O)N[C@H]3C[C@H]4CC[C@@H](C3)N4C)ccc21 [Example 276, 1-(1-Ethyl-propyl)-2-thiophen-2-ylmethyl-1H-benzoimidazole-5-carboxylic acid [(S)-3-methyl-1-((3R)-8-methyl-8-aza-bicyclo[3.2.1]oct-3-ylcarbamoyl)-butyl]-amide] | 105
23 | CCC(CC)n1c(Cc2cccs2)nc2cc(C(=O)N[C@@H](CC(C)C)C(=O)NC3CC4CCCC(C3)N4C)ccc21 (stereo partly drawn) [Example 292, 1-(1-Ethyl-propyl)-2-thiophen-2-ylmethyl-1H-benzoimidazole-5-carboxylic acid [(S)-3-methyl-1-(9-methyl-9-aza-bicyclo[3.3.1]non-3-ylcarbamoyl)-butyl]-amide] | 1220
